Values joined by “and” are separate entries in the source; they are usually repeats but may differ in a detail not shown here. Equal entries are not always repeated.
Assay: Stability study of injectable trace element composition in parenteral nutrition admixtures (assay test for zinc, copper, selenium, manganese)
Type: physicochemical
Source text: In order to establish stability data for parenteral nutrition admixed with the injectable compositions of trace elements, we conducted a stability study of injectable trace element composition (trace elements injectable composition, USP) in parenteral nutrition admixtures (assay test); a pH study of parenteral nutrition (PN) admixtures upon addition of injectable trace element composition (trace elements injectable composition, USP); a compatibility study of injectable trace element composition (trace elements injectable composition, USP) in parenteral nutrition admixtures; and a reduced inoculation antimicrobial effectiveness study for injectable trace element composition (trace elements injectable composition, USP) in parenteral nutrition admixtures. […]

Row | Compound | Assay Day 0 | Assay Day 5 | Assay Day 7 | Assay Day 10 | Assay Day 14
1 | O.O.O.O.O.O.O.O=S(=O)([O-])[O-].[Zn+2] [Zinc, zinc sulfate heptahydrate] | 96.5% and 98.5% | 93.9% and 94.4% | 93.8% and 96.5% | 97.0% and 96.2% | 96.0% and 96.3%
2 | O.O.O.O.O.O=S(=O)([O-])[O-].[Cu+2] [Copper, cupric sulfate pentahydrate] | 109.7% | 98.7% and 98.8% | 97.8% | 99.9% | 105.5% and 106.0%
